# From paper PMC8869984, “Multifunctional Silver(I) Complexes with Metronidazole Drug Reveal Antimicrobial Properties and Antitumor Activity against Human Hepatoma and Colorectal Adenocarcinoma Cells” (Cancers, 2022)
# What was measured:
# [1] = system: HepG2 cells; assay: MTT assay (mitochondrial activity), 72 h exposure; format: cell-based, human; settings: Figure 6
# Method: (§1) The human hepatoma (HepG2) and colorectal adenocarcinoma (Caco-2) cells were purchased from the American Type Culture Collection: ATCC HB-8065 and ATCC HTB-37, respectively. These cells were cultured in Minimum Essential Medium Eagle (MEME) (ATCC). The murine fibroblasts cell line (Balb/c 3T3 clone A31) (gift from the Department of Swine Diseases of the National Veterinary Research Institute in Pulawy) was cultured in Dulbecco’s Modified Eagle Medium (DMEM) (ATCC). The media were supplemented with 10% BCS (Balb/c 3T3), 10% FBS (HepG2), 20% FBS (Caco-2), 1% L-glutamine, 1% antibiotic solution. The cells were maintained in 75 cm^2 cell culture flasks (NUNC) in a humidified incubator at 37 °C in an atmosphere of 5% CO2. The medium was refreshed every two or three days, and the cells were trypsinized by 0.25% trypsin–0.02% EDTA after reaching 70–80% confluence. Single cell suspensions were prepared and adjusted to a density of 2 × 10^5 cell/mL^−1 (HepG2), 1 × 10^5 cell/mL^−1 (Caco-2) and 5 × 10^4 cell/mL^−1 (Balb/c 3T3). The cell suspension was transferred to 96-well plates (100 µL/well) and incubated for 24 h before the exposure to the studied compounds. Stock solutions of ligands and metal complexes were prepared in sterile water and diluted with culture medium to obtain a concentration range from 0.1 to 10 µM. The final concentration of sterile water was 0.1% in the medium. […] As a negative control, cultured cells were grown in the absence of studied compounds. Each concentration was tested in six replicates in three independent experiments. Cytotoxicity was assessed after 72 h of exposure of the cells to compounds. The medium was not changed during the incubation time.
# The metabolic activity of living cells was assessed by the measurement of the activity of dehydrogenases. […] The plate was shaken for 15 min at room temperature and transferred to a microplate reader Synergy HTX multi-mode reader (BioTek® Instruments Inc., Winooski, VT, USA) to measure the absorbance at 570 nm, using a blank as a reference. Cytotoxicity was expressed as a percentage of the negative control. […]
# [2] = system: HepG2 cells; assay: NRU assay (lysosomal activity), 72 h exposure; format: cell-based, human; settings: Figure 6
# Method: as §1
# This method is based on staining living cells with neutral red, which readily diffuses through the plasma membrane and accumulates in lysosomes. […] After 10 min of shaking, the absorbance of the dissolved NR was measured using a Synergy HTX multi-mode reader (BioTek® Instruments Inc., Winooski, VT, USA) at 540 nm using a blank as a reference. Cytotoxicity was expressed as a percentage of the negative control. […]
# [3] = system: S. aureus ATCC 25923; assay: micro-dilution broth method (MIC, MBC); format: cell-based, Staphylococcus aureus
# [4] = system: B. subtilis ATCC 6633; assay: micro-dilution broth method (MIC, MBC); format: cell-based, Bacillus subtilis
# [5] = system: B. cereus ATCC 10876; assay: micro-dilution broth method (MIC, MBC); format: cell-based, Bacillus cereus
# [6] = system: E. faecalis ATCC 29212; assay: micro-dilution broth method (MIC, MBC); format: cell-based, Enterococcus faecalis
# [7] = system: P. acnes ATCC 11827; assay: micro-dilution broth method (MIC, MBC); format: cell-based, Propionibacterium acnes
# [8] = system: C. perfringens ATCC 13124; assay: microbe, parasite or virus in culture; format: cell-based, Clostridium perfringens
# [9] = system: H. pylori ATCC 43504; assay: micro-dilution broth method (MIC, MBC); format: cell-based
# [10] = system: S. typhimurium ATCC 14028; assay: micro-dilution broth method (MIC, MBC); format: cell-based, Salmonella Typhimurium
# [11] = system: E. coli ATCC 25922; assay: micro-dilution broth method (MIC, MBC); format: cell-based, Escherichia coli
# [12] = system: K. pneumoniae ATCC 13883; assay: micro-dilution broth method (MIC, MBC); format: cell-based, Klebsiella pneumoniae
# [13] = system: P. aeruginosa ATCC 9027; assay: micro-dilution broth method (MIC, MBC); format: cell-based, Pseudomonas aeruginosa
# [14] = system: F. nucleatum ATCC 25586; assay: micro-dilution broth method (MIC, MBC); format: cell-based, Fusobacterium nucleatum
# [15] = S. aureus ATCC 25923, value in brackets
# [16] = B. subtilis ATCC 6633, value in brackets
# [17] = B. cereus ATCC 10876, value in brackets
# [18] = E. faecalis ATCC 29212, value in brackets
# [19] = P. acnes ATCC 11827, value in brackets
# [20] = C. perfringens ATCC 13124, value in brackets
# [21] = H. pylori ATCC 43504, value in brackets
# [22] = S. typhimurium ATCC 14028, value in brackets
# [23] = E. coli ATCC 25922, value in brackets
# [24] = K. pneumoniae ATCC 13883, value in brackets
# [25] = P. aeruginosa ATCC 9027, value in brackets
# [26] = F. nucleatum ATCC 25586, value in brackets
smiles,measurement,setting,value
Cc1ncc([N+](=O)[O-])n1CCO.Cc1ncc([N+](=O)[O-])n1CCO.Cc1ncc([N+](=O)[O-])n1CCO.Cc1ncc([N+](=O)[O-])n1CCO.O=S(=O)([O-])[O-].[Ag+].[Ag+] [[Ag(MTZ)2]2SO4],lowest concentration with significant (p ≤ 0.05) effect,[1],5.0 µM
same,lowest concentration with significant (p ≤ 0.05) effect,[2],5.0 µM
same,MBC,[3]; S. aureus ATCC 25923,15.6 mg/L
same,MIC,[3]; S. aureus ATCC 25923,15.6 mg/L
same,MBC,[3]; [15],0.014 µM/mL
same,MIC,[3]; [15],0.014 µM/mL
same,MBC,[4]; B. subtilis ATCC 6633,15.6 mg/L
same,MIC,[4]; B. subtilis ATCC 6633,15.6 mg/L
same,MBC,[4]; [16],0.014 µM/mL
same,MIC,[4]; [16],0.014 µM/mL
same,MIC,[5]; B. cereus ATCC 10876,62.5 mg/L
same,MBC,[5]; [17],0.12 µM/mL
same,MIC,[5]; [17],0.06 µM/mL
same,MBC,[6]; E. faecalis ATCC 29212,62.5 mg/L
same,MIC,[6]; E. faecalis ATCC 29212,31.3 mg/L
same,MBC,[6]; [18],0.06 µM/mL
same,MIC,[6]; [18],0.03 µM/mL
same,MBC,[7]; P. acnes ATCC 11827,500 mg/L
same,MBC,[7]; [19],0.46 µM/mL
same,MIC,[7]; [19],0.12 µM/mL
same,MBC,[8]; C. perfringens ATCC 13124,3.9 mg/L
same,MIC,[8]; C. perfringens ATCC 13124,1.95 mg/L
same,MBC,[8]; [20],0.004 µM/mL
same,MIC,[8]; [20],0.002 µM/mL
same,MBC,[9]; H. pylori ATCC 43504,31.3 mg/L
same,MIC,[9]; H. pylori ATCC 43504,7.8 mg/L
same,MBC,[9]; [21],0.03 µM/mL
same,MIC,[9]; [21],0.008 µM/mL
same,MBC,[10]; S. typhimurium ATCC 14028,62.5 mg/L
same,MIC,[10]; S. typhimurium ATCC 14028,15.6 mg/L
same,MBC,[10]; [22],0.06 µM/mL
same,MIC,[10]; [22],0.014 µM/mL
same,MBC,[11]; E. coli ATCC 25922,31.3 mg/L
same,MIC,[11]; E. coli ATCC 25922,15.6 mg/L
same,MBC,[11]; [23],0.03 µM/mL
same,MIC,[11]; [23],0.014 µM/mL
same,MBC,[12]; K. pneumoniae ATCC 13883,31.3 mg/L
same,MIC,[12]; K. pneumoniae ATCC 13883,15.6 mg/L
same,MBC,[12]; [24],0.03 µM/mL
same,MIC,[12]; [24],0.014 µM/mL
same,MBC,[13]; P. aeruginosa ATCC 9027,15.6 mg/L
same,MIC,[13]; P. aeruginosa ATCC 9027,7.8 mg/L
same,MBC,[13]; [25],0.014 µM/mL
same,MIC,[13]; [25],0.008 µM/mL
same,MBC,[14]; F. nucleatum ATCC 25586,0.49 mg/L
same,MIC,[14]; F. nucleatum ATCC 25586,0.49 mg/L
same,MBC,[14]; [26],0.0004 µM/mL
same,MIC,[14]; [26],0.0004 µM/mL
